Experimental data from patent publication US8785488B2 (Exelixis Patent Company LLC, priority 2009, dated 2014).

What was measured:
human TGR5 (h-TGR5) = biological target: T1, human TGR5 (h-TGR5) (Homo sapiens, UniProt Q8TDU6); assay: TGR5/CRE-Luciferiase Assay (HEK 293 hTGR5/CRE-Luc cells); format: cell-based; settings: h-TGR5 CRE-Luc EC50, Table 1; read-out: CRE-Luc (EC50)
T1 construct: expressed in transfected cells
T1 sequence (Q8TDU6 1-330): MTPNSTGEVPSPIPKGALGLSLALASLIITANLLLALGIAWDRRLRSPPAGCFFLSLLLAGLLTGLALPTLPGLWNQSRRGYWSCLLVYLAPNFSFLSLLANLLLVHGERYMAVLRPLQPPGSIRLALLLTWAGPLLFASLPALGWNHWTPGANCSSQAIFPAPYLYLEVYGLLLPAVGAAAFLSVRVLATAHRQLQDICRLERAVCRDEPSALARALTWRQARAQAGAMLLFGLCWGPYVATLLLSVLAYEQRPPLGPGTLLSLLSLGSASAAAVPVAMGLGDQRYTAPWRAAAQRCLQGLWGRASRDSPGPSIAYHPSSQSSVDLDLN
Procedure, shortened: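 HEK293 cells stably carrying hTGR5 and a CRE-luciferase reporter were exposed to serially diluted compounds (diluted in DMEM with 5% DMSO) for 6 h. Cells were then lysed in luciferase buffer, luminescence was read, and EC50 values were derived from dose-response curves.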

h-TGR5 = biological target: T2, h-TGR5 (Homo sapiens, UniProt Q8TDU6); assay: TGR5 cAMP Assay using Cisbio cAMP Dynamic2 htrf kit (hTGR5CRE-luc HEK 293 cells); format: cell-based; settings: h-TGR5 cAMP EC50, Table 1; read-out: cAMP (EC50)
T2 construct: expressed in transfected cells
T2 sequence (Q8TDU6 1-330): T1 sequence (Q8TDU6 1-330)
Procedure, shortened: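 […], 4000 hTGR5CRE-luc HEK 293 cells per well, with 0.5 mM IBMX and d2-cAMP, were incubated 30 min at room temperature with compounds in 8-point half-log series, in quadruplicate.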

Row | Structure (SMILES) | EC50 (human TGR5 (h-TGR5)) [µM] | EC50 (h-TGR5) [µM]
1 | COc1cc(-n2c(C(C)(C)c3ccc(S(N)(=O)=O)c(Cl)c3)cnc2SCc2c(F)cc(C(=O)O)cc2F)ccc1F [4-{[(5-{1-[4-(aminosulfonyl)-3-chlorophenyl]-1-methylethyl}-1-[4-fluoro-3-(methyloxy)phenyl]-1H-imidazol-2-yl)thio]methyl}-3,5-difluorobenzoic acid] | < 0.1 | < 0.1
2 | COc1cc(-n2c(C(C)(C)c3ccc(S(N)(=O)=O)c(Cl)c3)cnc2SCc2ccc(S(=O)(=O)NC(=O)NN3CCOCC3)cc2Cl)ccc1F [4-{[(5-{1-[4-(aminosulfonyl)-3-chlorophenyl]-1-methylethyl}-1-[4-fluoro-3-(methyloxy)phenyl]-1H-imidazol-2-yl)thio]methyl}-3-chloro-N-[(morpholin-4-ylamino)carbonyl]benzenesulfonamide] | 0.1 to 1 | < 0.1
3 | COc1cc(-n2c(C(C)(C)c3ccc(S(N)(=O)=O)c(Cl)c3)cnc2SCc2ccc(S(=O)(=O)NC(=O)NN3CCCCC3)cc2Cl)ccc1F [4-{[(5-{1-[4-(aminosulfonyl)-3-chlorophenyl]-1-methylethyl}-1-[4-fluoro-3-(methyloxy)phenyl]-1H-imidazol-2-yl)thio]methyl}-3-chloro-N-[(piperidin-1-ylamino)carbonyl]benzenesulfonamide] | 0.1 to 1 | 0.1 to 1
4 | COc1cc(-n2c(C(C)(C)c3ccc(S(N)(=O)=O)cc3)cnc2SCc2c(F)cc(C(=O)O)cc2F)ccc1F [4-{[(5-{1-[4-(aminosulfonyl)phenyl]-1-methylethyl}-1-[4-fluoro-3-(methyloxy)phenyl]-1H-imidazol-2-yl)thio]methyl}-3,5-difluorobenzoic acid] | 0.1 to 1 | 0.1 to 1
5 | COc1cc(-n2c(C(C)(C)c3ccc(S(C)(=O)=O)cc3)cnc2SCc2ccc(Cl)c(-c3nnn[nH]3)c2)ccc1F [5-(2-chloro-5-{[(1-[4-fluoro-3-(methyloxy)phenyl]-5-{1-methyl-1-[4-(methylsulfonyl)phenyl]ethyl}-1H-imidazol-2-yl)thio]methyl}phenyl)-1H-tetrazole] | 0.1 to 1 | 0.1 to 1
6 | COc1cc(C(C)(C)c2cnc(SCc3c(F)cc(OCc4nnn[nH]4)cc3F)n2-c2ccc(F)cc2)ccc1Cl [5-({[4-({[5-{1-[4-chloro-3-(methyloxy)phenyl]-1-methylethyl}-1-(4-fluorophenyl)-1H-imidazol-2-yl]thio}methyl)-3,5-difluorophenyl]oxy}methyl)-1H-tetrazole] | < 0.1 | < 0.1
7 | COc1ccc(C(C)(C)c2cnc(SCc3ccc(F)c(C(N)=O)c3)n2-c2ccc(F)cc2)cc1OC [5-({[5-{1-[3,4-bis(methyloxy)phenyl]-1-methylethyl}-1-(4-fluorophenyl)-1H-imidazol-2-yl]thio}methyl)-2-fluorobenzamide] | < 0.1 | < 0.1
8 | COc1ccc(C(C)(C)c2cnc(SCc3ccc(F)c(S(N)(=O)=O)c3)n2-c2ccc(F)cc2)cc1OC [5-({[5-{1-[3,4-bis(methyloxy)phenyl]-1-methylethyl}-1-(4-fluorophenyl)-1H-imidazol-2-yl]thio}methyl)-2-fluorobenzenesulfonamide] | < 0.1 | < 0.1
9 | COc1ccc(C(C)(C)c2cnc(SCc3ccc(F)c(S(N)(=O)=O)c3)n2-c2ccc(F)cc2)cc1Cl [5-({[5-{1-[3-chloro-4-(methyloxy)phenyl]-1-methylethyl}-1-(4-fluorophenyl)-1H-imidazol-2-yl]thio}methyl)-2-fluorobenzenesulfonamide] | < 0.1 | < 0.1
10 | COc1cc(C(C)(C)c2cnc(SCc3ccc(F)c(S(N)(=O)=O)c3)n2-c2ccc(F)cc2)ccc1Cl [5-({[5-{1-[4-chloro-3-(methyloxy)phenyl]-1-methylethyl}-1-(4-fluorophenyl)-1H-imidazol-2-yl]thio}methyl)-2-fluorobenzenesulfonamide] | < 0.1 | < 0.1
11 | CC(C)(c1ccc(Cl)c(Cl)c1)c1cnc(SCC2CCN(S(C)(=O)=O)C2)n1-c1ccc(F)cc1 (centres unmarked) [5-[1-(3,4-dichlorophenyl)-1-methylethyl]-1-(4-fluorophenyl)-2-({[1-(methylsulfonyl)pyrrolidin-3-yl]methyl}thio)-1H-imidazole] | 0.1 to 1 | 0.1 to 1
12 | CC(C)(c1ccc(Cl)c(Cl)c1)c1cnc(SCc2ccc(F)c(S(C)(=O)=O)c2)n1-c1ccc(F)cc1 [5-[1-(3,4-dichlorophenyl)-1-methylethyl]-2-({[4-fluoro-3-(methylsulfonyl)phenyl]methyl}thio)-1-(4-fluorophenyl)-1H-imidazole] | < 0.1 | 0.1 to 1
13 | CC(C)(c1ccc(Cl)c(Cl)c1)c1cnc(SCc2c(F)cccc2F)n1-c1ccc(F)cc1 [5-[1-(3,4-dichlorophenyl)-1-methylethyl]-2-{[(2,6-difluorophenyl)methyl]thio}-1-(4-fluorophenyl)-1H-imidazole] | < 0.1 | 0.1 to 1
14 | CC(C)(c1ccc(F)c(Cl)c1)c1cnc(SCc2c(F)cccc2Cl)n1-c1ccc(F)cc1 [5-[1-(3-chloro-4-fluorophenyl)-1-methylethyl]-2-{[(2-chloro-6-fluorophenyl)methyl]thio}-1-(4-fluorophenyl)-1H-imidazole] | < 0.1 | 0.1 to 1
15 | CC(C)(c1ccc(Cl)cc1F)c1cnc(SCc2c(F)cccc2Cl)n1-c1ccc(F)cc1 [5-[1-(4-chloro-2-fluorophenyl)-1-methylethyl]-2-{[(2-chloro-6-fluorophenyl)methyl]thio}-1-(4-fluorophenyl)-1H-imidazole] | 0.1 to 1 | 0.1 to 1
16 | COc1ccc(C2CCCCN2S(=O)(=O)c2ncc(C(C)(C)c3ccc(Cl)c(Cl)c3)n2-c2ccc(F)cc2)cn1 (centres unmarked) [5-[1-({5-[1-(3,4-dichlorophenyl)-1-methylethyl]-1-(4-fluorophenyl)-1H-imidazol-2-yl}sulfonyl)piperidin-2-yl]-2-(methyloxy)pyridine] | 0.1 to 1 | 0.1 to 1
17 | COc1ccc(C(C)(C)c2cnc(SCc3cc(-c4nnn[nH]4)c(Cl)cc3Cl)n2-c2ccc(F)cc2)cc1Cl [5-[2,4-dichloro-5-({[5-{1-[3-chloro-4-(methyloxy)phenyl]-1-methylethyl}-1-(4-fluorophenyl)-1H-imidazol-2-yl]thio}methyl)phenyl]-1H-tetrazole] | < 0.1 | 0.1 to 1
18 | COc1ccc(C(C)(C)c2cnc(SCc3ccc(Cl)c(-c4nnn[nH]4)c3)n2-c2ccc(F)cc2)cc1Cl [5-[2-chloro-5-({[5-{1-[3-chloro-4-(methyloxy)phenyl]-1-methylethyl}-1-(4-fluorophenyl)-1H-imidazol-2-yl]thio}methyl)phenyl]-1H-tetrazole] | < 0.1 | 0.1 to 1
19 | COc1cc(C(C)(C)c2cnc(COc3ccc(Cl)c(-c4nnn[nH]4)c3)n2-c2ccc(F)cc2)ccc1Cl [5-[2-chloro-5-({[5-{1-[4-chloro-3-(methyloxy)phenyl]-1-methylethyl}-1-(4-fluorophenyl)-1H-imidazol-2-yl]methyl}oxy)phenyl]-1H-tetrazole] | < 0.1 | 0.1 to 1
20 | COc1cc(C(C)(C)c2cnc(SCc3ccc(Cl)c(-c4nnn[nH]4)c3)n2-c2ccc(F)cc2)ccc1Cl [5-[2-chloro-5-({[5-{l-[4-chloro-3-(methyloxy)phenyl]-1-methylethyl}-1-(4-fluorophenyl)-1H-imidazol-2-yl]thio}methyl)phenyl]-1H-tetrazole] | < 0.1 | 0.1 to 1
21 | COc1cc(C(C)(C)c2cnc(SCc3c(F)cc(-c4n[nH]c(=O)o4)cc3Cl)n2-c2ccc(F)cc2)ccc1Cl [5-[3-chloro-4-({[5-{1-[4-chloro-3-(methyloxy)phenyl]-1-methylethyl}-1-(4-fluorophenyl)-1H-imidazol-2-yl]thio}methyl)-5-fluorophenyl]-1,3,4-oxadiazol-2(3H)-one] | < 0.1 | < 0.1
22 | COc1cc(C(C)(C)c2cnc(SCc3c(F)cc(-c4nnn[nH]4)cc3F)n2-c2ccc(F)cc2)ccc1Cl [5-[4-({[5-{1-[4-chloro-3-(methyloxy)phenyl]-1-methylethyl}-1-(4-fluorophenyl)-1H-imidazol-2-yl]thio}methyl)-3,5-difluorophenyl]-1H-tetrazole] | < 0.1 | < 0.1
23 | COc1cc(C(C)(C)c2cnc(SCc3ccc(F)c(-c4nnn[nH]4)c3)n2-c2ccc(F)cc2)ccc1Cl [5-[5-({[5-{1-[4-chloro-3-(methyloxy)phenyl]-1-methylethyl}-1-(4-fluorophenyl)-1H-imidazol-2-yl]thio}methyl)-2-fluorophenyl]-1H-tetrazole] | < 0.1 | < 0.1
24 | CC(C)(O)COc1ccc(CSc2ncc(C(C)(C)c3ccc(Cl)c(Cl)c3)n2-c2ccc(F)cc2)cc1S(N)(=O)=O [5-[({5-[1-(3,4-dichlorophenyl)-1-methylethyl]-1-(4-fluorophenyl)-1H-imidazol-2-yl}thio)methyl]-2-[(2-hydroxy-2-methylpropyl)oxy]benzenesulfonamide] | < 0.1 | 0.1 to 1
25 | CC(C)(c1ccc(Cl)c(Cl)c1)c1cnc(SCc2ccc(OCCO)c(S(N)(=O)=O)c2)n1-c1ccc(F)cc1 [5-[({5-[1-(3,4-dichlorophenyl)-1-methylethyl]-1-(4-fluorophenyl)-1H-imidazol-2-yl}thio)methyl]-2-[(2-hydroxyethyl)oxy]benzenesulfonamide] | < 0.1 | 0.1 to 1
